Test results as given in PMC5513037, “Examining the influence of specificity ligands and ATP-competitive ligands on the overall effectiveness of bivalent kinase inhibitors” (Proteome Science, 2017).

Assays:
Assay in all cases: Dasatinib-matrix competition in K562 lysate
Details in all cases: residual binding 50 value; read-out: RB50 (the source's name)
N-TAF1 = molecular target: T1, N-TAF1 (Homo sapiens, UniProt P21675)
T1 construct: endogenous in cells; host or cells: K562

TKT = molecular target: T2, TKT (Homo sapiens, UniProt P29401)
T2 construct: endogenous in cells; host or cells: K562
T2 sequence (P29401 whole entry): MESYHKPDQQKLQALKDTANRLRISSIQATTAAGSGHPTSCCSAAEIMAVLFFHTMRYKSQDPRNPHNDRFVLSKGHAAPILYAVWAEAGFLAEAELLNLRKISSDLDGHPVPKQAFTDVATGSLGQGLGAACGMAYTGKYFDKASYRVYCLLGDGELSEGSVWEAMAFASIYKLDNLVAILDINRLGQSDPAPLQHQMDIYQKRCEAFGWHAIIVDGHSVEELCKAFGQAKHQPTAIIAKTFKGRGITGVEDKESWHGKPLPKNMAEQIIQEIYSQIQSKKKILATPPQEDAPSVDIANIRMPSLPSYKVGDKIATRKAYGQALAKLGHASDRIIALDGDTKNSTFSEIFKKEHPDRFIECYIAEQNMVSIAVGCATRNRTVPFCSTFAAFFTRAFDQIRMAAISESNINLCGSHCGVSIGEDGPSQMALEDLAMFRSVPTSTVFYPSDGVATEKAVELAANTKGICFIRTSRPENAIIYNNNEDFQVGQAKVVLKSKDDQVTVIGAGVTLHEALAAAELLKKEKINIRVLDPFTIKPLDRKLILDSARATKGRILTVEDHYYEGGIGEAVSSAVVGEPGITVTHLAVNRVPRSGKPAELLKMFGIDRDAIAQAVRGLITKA

ATR = molecular target: T3, ATR (Homo sapiens, UniProt Q13535)
T3 construct: endogenous in cells; host or cells: K562

SPEG = molecular target: T4, SPEG (Homo sapiens, UniProt Q15772)
T4 construct: endogenous in cells; host or cells: K562

OBSCN = molecular target: T5, OBSCN (Homo sapiens, UniProt Q5VST9)
T5 construct: endogenous in cells; host or cells: K562

TEX14 = molecular target: T6, TEX14 (Homo sapiens, UniProt Q8IWB6)
T6 construct: endogenous in cells; host or cells: K562

TTN = molecular target: T7, TTN (Homo sapiens, UniProt Q8WZ42)
T7 construct: endogenous in cells; host or cells: K562

SMG1 = molecular target: T8, SMG1 (Homo sapiens, UniProt Q96Q15)
T8 construct: endogenous in cells; host or cells: K562

PIK3R4 = molecular target: T9, PIK3R4 (Homo sapiens, UniProt Q99570)
T9 construct: endogenous in cells; host or cells: K562
T9 sequence (Q99570 2-1358 limits assumed): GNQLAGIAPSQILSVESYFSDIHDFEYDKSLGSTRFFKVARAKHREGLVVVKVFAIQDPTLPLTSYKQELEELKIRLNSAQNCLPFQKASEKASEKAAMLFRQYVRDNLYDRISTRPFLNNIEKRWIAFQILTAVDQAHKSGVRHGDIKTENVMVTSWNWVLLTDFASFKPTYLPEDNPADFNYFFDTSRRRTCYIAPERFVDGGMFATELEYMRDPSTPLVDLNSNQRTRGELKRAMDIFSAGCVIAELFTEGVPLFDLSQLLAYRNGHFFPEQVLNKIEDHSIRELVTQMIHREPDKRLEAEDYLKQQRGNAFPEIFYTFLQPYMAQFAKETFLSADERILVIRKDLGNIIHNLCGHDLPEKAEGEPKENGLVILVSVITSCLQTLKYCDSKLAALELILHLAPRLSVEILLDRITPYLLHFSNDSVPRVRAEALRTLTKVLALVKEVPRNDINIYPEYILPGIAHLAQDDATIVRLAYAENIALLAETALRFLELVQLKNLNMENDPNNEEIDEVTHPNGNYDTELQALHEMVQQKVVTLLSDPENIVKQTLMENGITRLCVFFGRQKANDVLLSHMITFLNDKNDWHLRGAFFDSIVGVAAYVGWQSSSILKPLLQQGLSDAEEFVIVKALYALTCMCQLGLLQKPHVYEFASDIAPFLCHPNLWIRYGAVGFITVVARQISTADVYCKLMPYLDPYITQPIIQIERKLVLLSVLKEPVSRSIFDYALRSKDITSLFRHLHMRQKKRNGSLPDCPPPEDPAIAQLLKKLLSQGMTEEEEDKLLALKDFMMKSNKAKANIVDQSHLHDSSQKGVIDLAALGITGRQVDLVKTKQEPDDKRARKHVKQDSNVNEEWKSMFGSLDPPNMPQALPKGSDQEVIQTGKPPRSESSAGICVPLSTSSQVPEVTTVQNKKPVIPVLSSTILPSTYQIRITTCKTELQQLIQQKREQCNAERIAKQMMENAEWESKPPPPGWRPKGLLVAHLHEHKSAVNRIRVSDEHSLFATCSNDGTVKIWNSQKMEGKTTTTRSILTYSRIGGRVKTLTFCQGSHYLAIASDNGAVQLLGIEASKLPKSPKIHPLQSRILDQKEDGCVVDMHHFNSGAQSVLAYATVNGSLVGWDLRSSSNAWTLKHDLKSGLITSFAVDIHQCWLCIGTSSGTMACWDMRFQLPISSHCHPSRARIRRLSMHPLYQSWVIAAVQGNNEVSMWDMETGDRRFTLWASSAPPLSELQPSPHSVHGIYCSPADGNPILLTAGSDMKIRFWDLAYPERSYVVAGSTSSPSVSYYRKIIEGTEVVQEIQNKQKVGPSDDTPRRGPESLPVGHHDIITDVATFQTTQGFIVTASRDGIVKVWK
T9 sequence (Q8NEB9 whole entry partner): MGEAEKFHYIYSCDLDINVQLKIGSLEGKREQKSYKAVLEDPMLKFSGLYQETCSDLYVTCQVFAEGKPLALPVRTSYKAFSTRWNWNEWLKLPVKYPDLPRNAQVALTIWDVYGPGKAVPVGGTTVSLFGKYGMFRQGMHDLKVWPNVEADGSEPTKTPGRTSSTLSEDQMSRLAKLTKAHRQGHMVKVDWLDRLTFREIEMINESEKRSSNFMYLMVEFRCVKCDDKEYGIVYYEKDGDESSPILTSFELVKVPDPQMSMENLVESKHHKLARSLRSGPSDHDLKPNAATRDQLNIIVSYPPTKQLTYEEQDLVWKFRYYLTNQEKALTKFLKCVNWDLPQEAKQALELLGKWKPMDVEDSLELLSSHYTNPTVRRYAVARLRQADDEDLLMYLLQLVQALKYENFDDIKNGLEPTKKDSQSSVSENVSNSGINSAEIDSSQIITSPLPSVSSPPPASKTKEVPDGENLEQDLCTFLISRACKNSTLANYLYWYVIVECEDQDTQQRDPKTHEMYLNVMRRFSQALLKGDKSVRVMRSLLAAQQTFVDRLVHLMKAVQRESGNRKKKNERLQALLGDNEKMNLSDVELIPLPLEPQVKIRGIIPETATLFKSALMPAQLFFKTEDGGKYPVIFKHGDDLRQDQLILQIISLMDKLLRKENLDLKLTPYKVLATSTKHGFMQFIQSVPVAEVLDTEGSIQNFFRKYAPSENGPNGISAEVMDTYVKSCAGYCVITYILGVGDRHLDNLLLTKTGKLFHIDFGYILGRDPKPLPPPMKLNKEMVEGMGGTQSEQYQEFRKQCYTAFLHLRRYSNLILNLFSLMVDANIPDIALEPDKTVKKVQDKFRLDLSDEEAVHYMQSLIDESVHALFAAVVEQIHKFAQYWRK

ATM = ATM (Homo sapiens, UniProt Q13315); set-up: endogenous in cells; host or cells: K562

T1 sequence (P21675 1-1895 isoform P21675-17): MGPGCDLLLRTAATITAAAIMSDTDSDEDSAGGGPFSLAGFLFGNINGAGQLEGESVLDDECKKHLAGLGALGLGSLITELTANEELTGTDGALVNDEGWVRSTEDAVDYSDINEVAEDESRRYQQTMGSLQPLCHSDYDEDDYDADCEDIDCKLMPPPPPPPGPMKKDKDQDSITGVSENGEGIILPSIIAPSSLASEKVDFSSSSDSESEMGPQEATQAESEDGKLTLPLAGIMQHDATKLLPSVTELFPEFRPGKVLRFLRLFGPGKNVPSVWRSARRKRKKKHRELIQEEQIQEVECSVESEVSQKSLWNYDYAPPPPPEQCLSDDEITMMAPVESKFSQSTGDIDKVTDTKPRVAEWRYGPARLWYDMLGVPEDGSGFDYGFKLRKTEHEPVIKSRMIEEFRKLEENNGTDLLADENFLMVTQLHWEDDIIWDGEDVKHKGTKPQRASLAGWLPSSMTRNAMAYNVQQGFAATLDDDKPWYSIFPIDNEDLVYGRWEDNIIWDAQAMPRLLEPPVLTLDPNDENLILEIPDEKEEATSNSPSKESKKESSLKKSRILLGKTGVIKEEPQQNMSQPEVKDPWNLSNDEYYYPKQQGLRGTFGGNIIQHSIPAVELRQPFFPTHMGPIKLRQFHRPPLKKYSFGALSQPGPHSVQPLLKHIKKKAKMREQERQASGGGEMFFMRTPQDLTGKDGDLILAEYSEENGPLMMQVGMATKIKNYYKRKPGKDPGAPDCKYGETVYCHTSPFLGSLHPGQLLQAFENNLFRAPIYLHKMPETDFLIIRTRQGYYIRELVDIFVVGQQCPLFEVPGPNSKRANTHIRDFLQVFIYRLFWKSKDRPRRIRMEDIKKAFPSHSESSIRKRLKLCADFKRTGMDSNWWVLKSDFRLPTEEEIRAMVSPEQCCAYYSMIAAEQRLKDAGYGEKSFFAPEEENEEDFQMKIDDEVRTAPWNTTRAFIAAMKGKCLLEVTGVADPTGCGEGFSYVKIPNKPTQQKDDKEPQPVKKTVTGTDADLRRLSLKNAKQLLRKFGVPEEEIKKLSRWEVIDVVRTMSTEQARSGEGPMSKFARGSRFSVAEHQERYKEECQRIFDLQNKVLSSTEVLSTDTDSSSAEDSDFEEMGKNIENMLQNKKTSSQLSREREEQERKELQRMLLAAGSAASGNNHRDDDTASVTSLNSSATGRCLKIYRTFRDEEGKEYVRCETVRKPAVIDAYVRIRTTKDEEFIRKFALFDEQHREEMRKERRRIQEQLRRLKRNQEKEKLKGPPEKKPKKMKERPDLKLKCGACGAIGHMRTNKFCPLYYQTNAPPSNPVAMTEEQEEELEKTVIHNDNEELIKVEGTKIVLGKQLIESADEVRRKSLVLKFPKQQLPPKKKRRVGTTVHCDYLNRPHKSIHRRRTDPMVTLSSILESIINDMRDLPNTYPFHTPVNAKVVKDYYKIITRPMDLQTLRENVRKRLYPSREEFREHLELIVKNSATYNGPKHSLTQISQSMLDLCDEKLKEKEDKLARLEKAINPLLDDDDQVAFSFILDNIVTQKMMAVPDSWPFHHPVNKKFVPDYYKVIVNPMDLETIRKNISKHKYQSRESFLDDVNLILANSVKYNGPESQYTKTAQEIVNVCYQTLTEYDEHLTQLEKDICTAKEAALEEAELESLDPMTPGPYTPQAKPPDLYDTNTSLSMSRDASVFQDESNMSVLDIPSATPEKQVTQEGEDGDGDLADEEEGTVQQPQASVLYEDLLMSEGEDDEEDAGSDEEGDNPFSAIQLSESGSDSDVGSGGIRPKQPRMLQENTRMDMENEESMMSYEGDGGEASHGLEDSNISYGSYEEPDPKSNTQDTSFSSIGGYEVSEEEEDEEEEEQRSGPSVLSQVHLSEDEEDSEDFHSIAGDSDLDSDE

With `Cc1nc(Nc2ncc(C(=O)Nc3c(C)cccc3Cl)s2)cc(N2CCN(CCO)CC2)n1` [Dasatinib] the IC50 (N-TAF1) was 9.66 µM, the IC50 (TKT) was greater than 10 µM and the IC50 (ATR) was greater than 10 µM. The IC50 (SPEG) was greater than 10 µM, the IC50 (OBSCN) was greater than 10 µM and the IC50 (TEX14) was greater than 10 µM. The IC50 (TTN) was greater than 10 µM, the IC50 (SMG1) was greater than 10 µM and the IC50 (PIK3R4) was greater than 10 µM. For the same molecule, the IC50 (ATM) was greater than 10 µM.
